Data: publication PMC11013143, “4-Chloroisocoumarins as Chlamydial Protease Inhibitors and Anti-Chlamydial Agents” (Molecules, 2024)

Assays:
[1] = target: T1, Human Leukocyte Elastase (HLE) (Homo sapiens, UniProt P08246); assay: HLE protease inhibition assay; assay type: biochemical
T1 construct: purchased Athens Research and Technology 16-15-051200
T1 sequence (P08246 30-247 limits assumed): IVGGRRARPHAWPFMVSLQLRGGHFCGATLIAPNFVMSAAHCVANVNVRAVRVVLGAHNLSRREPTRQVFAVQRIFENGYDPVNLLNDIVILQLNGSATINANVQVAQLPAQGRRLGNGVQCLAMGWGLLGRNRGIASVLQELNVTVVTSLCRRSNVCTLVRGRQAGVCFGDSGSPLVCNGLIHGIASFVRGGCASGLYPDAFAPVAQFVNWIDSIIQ
Protocol: Elastase was purchased from Athens Research and Technology (Cat No. 16-15-051200). Elastase (100 µg) was dissolved in Tris buffer (100 mM Tris, 20 mM CaCl2, pH 8.1, 3.14 mL), giving a concentration of 1.117 µM, and 25 µL was added to each well containing the respective inhibitor. The plate was incubated at 37 °C for 15 min.
N-Suc-AAA-pNA (Sigma Aldrich, Bayswater, Australia, S4760, 100 µL, 1 mg/mL, […]) was added to each well, and the absorbance was monitored every six minutes at 405 nm. The rate of change of absorbance was used as a comparison to controls to determine the % inhibition of protein in Microsoft Excel^TM (v2402), and these values were exported to GraphPad Prism (v8.0.1) for IC50 calculation.

Row | SMILES | IC50 ([1]; Table S1, variable slope four parameter fit, read-out: IC50 against HLE) [nM] | Relative Potency against HLE ([1]; [IC50 of JO146]/[IC50 test compound]) | melting point [°C]
1 | CCC(C)Oc1oc(=O)c2ccccc2c1Cl (racemic) [Compound 2g, (±)-3-sec-Butoxy-4-chloroisocoumarin] | 1810 | 0.451 | –
2 | CCC(C)Oc1oc(=O)c2cc(NC(=O)C(F)(F)F)ccc2c1Cl (racemic) [Compound 6d, (±)-N-(4-chloro-1-oxo-3-sec-butoxy-isochromen-7-yl)-2,2,2-trifluoroacetamide] | – | – | 189 to 190
